Reference: patent US20220332701A1, “HETEROCYCLIC COMPOUNDS AS BCR-ABL INHIBITORS” (ASCENTAGE PHARMA (SUZHOU) CO., LTD., priority 2019, published 2022)

Columns and labels:
BaF3(WT) = BaF3(WT) (Homo sapiens, UniProt P00519); test: WST (CCK-8) anti-proliferation assay, BaF3 WT cells; details: read-out: BaF3(WT); anti-proliferative IC50, 72 h treatment, CCK-8, BaF3 WT
Procedure: (§1) The anti-proliferative effect of representative Compounds of the Disclosure was determined by a water-soluble tetrazolium (WST)-based assay using Cell Counting Kit-8 (CCK-8). Cells were seeded in 96-well plates and treated with different concentrations of test articles for 72 h. Each treatment was tested in triplicates. Briefly, a series of 9 concentrations were chosen for each test article and added at 100 μl/well into a 96-well plate. Each concentration was tested in triplicates. 100 μl of diluent was added into 3-6 wells in the same plate for cell control group, and another set of 3-6 wells was used as a blank control.
(§2) In each well, 100 μl of cell suspension (containing optimal cell numbers, which creates approximately 100% confluence of cells in control wells based on by the absorbance (OD) value) was dispensed into the same 96-well plate except for the blank well. The plate was then cultured at 37° C. in an incubator in an atmosphere with 5% CO2 for 72 h. At the end of treatments, 20 μl/well of CCK-8 reagent was directly added to each wells. The plate was then incubated at 37° C. in an incubator in an atmosphere with 5% CO2 for 2-4 hour.
(§3) The cells viability was calculated using the mean OD value of triplicated wells following the equation below: (OD sample−OD blank)/(OD cell control−OD blank)×100 IC50 values were calculated with Graphpad Prism 6.0 software using nonlinear regression (curve fitting) type data analysis.

BaF3(T315I) = BaF3(T315I) (Homo sapiens, UniProt P00519, T315I, cells depend on it); test: WST (CCK-8) anti-proliferation assay, BaF3 T315I cells; details: read-out: BaF3(T315I); anti-proliferative IC50, 72 h treatment, CCK-8, BaF3 T315I
Procedure: as §1, §2, §3

COCCN(CCOC)C(=O)C1Cc2cc(C(=O)Nc3ccc(OC(F)(F)Cl)cc3)cc(-c3ccn[nH]3)c2N1C(C)C (centres unmarked) [VII-30, N^5-(4-(chlorodifluoromethoxy)phenyl)-1-isopropyl-N2,N2-bis(2-methoxyethyl)-7-(1H-pyrazol-5-yl)indoline-2,5-dicarboxamide]
GI50 (BaF3(WT)): 16 nM
GI50 (BaF3(T315I)): 94 nM

O=C(Nc1ccc(OC(F)(F)Cl)cc1)c1cc2c(c(-c3ccn[nH]3)c1)N(C1CC(CCl)C1)CC2 (centres unmarked) [VII-11, N-(4-(chlorodifluoromethoxy)phenyl)-1-(3-(chloromethyl)cyclobutyl)-7-(1H-pyrazol-3-yl)indoline-5-carboxamide]
GI50 (BaF3(WT)): 29 nM
GI50 (BaF3(T315I)): 946 nM

CC(C)N1CCc2cc(C(=O)Nc3ccc(OC(F)(F)Cl)cc3)cc(-c3cncnc3)c21 [VII-4, N-(4-(chlorodifluoromethoxy)phenyl)-1-isopropyl-7-(pyrimidin-5-yl)indoline-5-carboxamide]
GI50 (BaF3(WT)): 42 nM
GI50 (BaF3(T315I)): 136 nM

O=C(Nc1ccc(OC(F)(F)Cl)cc1)c1cc2c(c(-c3ccn[nH]3)c1)N(C1CC(CO)C1)CC2 (centres unmarked) [VII-12, N-(4-(chlorodifluoromethoxy)phenyl)-1-(3-(hydroxymethyl)cyclobutyl)-7-(1H-pyrazol-3-yl)indoline-5-carboxamide]
GI50 (BaF3(WT)): 112 nM
GI50 (BaF3(T315I)): 123 nM

CC(C)n1cc(Cl)c2cc(C(=O)Nc3ccc(OC(F)(F)Cl)cc3)cc(-c3cncnc3)c21 [XII-4, 3-chloro-N-(4-(chlorodifluoromethoxy)phenyl)-1-isopropyl-7-(pyrimidin-5-yl)-1H-indole-5-carboxamide]
GI50 (BaF3(WT)): 128 nM
GI50 (BaF3(T315I)): 726 nM

CCC1c2cc(C(=O)Nc3ccc(OC(F)(F)Cl)cc3)cc(-c3ccn[nH]3)c2N(C(C)C)C1CO (centres unmarked) [VII-20, N-(4-(chlorodifluoromethoxy)phenyl)-3-ethyl-2-(hydroxymethyl)-1-isopropyl-7-(1H-pyrazol-5-yl)indoline-5-carboxamide]
GI50 (BaF3(WT)): 165 nM
GI50 (BaF3(T315I)): 2180 nM

O=C(Nc1ccc(OC(F)(F)Cl)cc1)c1cc2c(c(-c3ccn[nH]3)c1)C1(CC=CC1)C(=O)N2 [V-4, N-(4-(chlorodifluoromethoxy)phenyl)-2′-oxo-4′-(1H-pyrazol-5-yl)spiro[cyclopentane-1,3′-indolin]-3-ene-6′-carboxamide]
GI50 (BaF3(WT)): 43 nM
GI50 (BaF3(T315I)): 292 nM

CC(C)n1cc(CO)c2cc(C(=O)Nc3ccc(OC(F)(F)Cl)cc3)cc(-c3cncnc3)c21 [XII-7, N-(4-(chlorodifluoromethoxy)phenyl)-3-(hydroxymethyl)-1-isopropyl-7-(pyrimidin-5-yl)-1H-indole-5-carboxamide]
GI50 (BaF3(WT)): 82 nM
GI50 (BaF3(T315I)): 552 nM

CC1CN(C(C)C)c2c(-c3cncnc3)cc(C(=O)Nc3ccc(OC(F)(F)Cl)cc3)cc21 (centres unmarked) [VII-37, N-(4-(chlorodifluoromethoxy)phenyl)-1-isopropyl-3-methyl-7-(pyrimidin-5-yl)indoline-5-carboxamide]
GI50 (BaF3(WT)): 41 nM
GI50 (BaF3(T315I)): 395 nM

CC(C)n1cc(Cl)c2cc(C(=O)Nc3ccc(OC(F)(F)Cl)cc3)cc(-c3ccn[nH]3)c21 [XII-3, 3-chloro-N-(4-(chlorodifluoromethoxy)phenyl)-1-isopropyl-7-(1H-pyrazol-5-yl)-1H-indole-5-carboxamide]
GI50 (BaF3(WT)): 505 nM
GI50 (BaF3(T315I)): 3270 nM

CNC(=O)C1Cc2cc(C(=O)Nc3ccc(OC(F)(F)Cl)cc3)cc(-c3cncnc3)c2N1C(C)C (centres unmarked) [VII-16, N5-(4-(chlorodifluoromethoxy)phenyl)-1-isopropyl-N2-methyl-7-(pyrimidin-5-yl)indoline-2,5-dicarboxamide]
GI50 (BaF3(WT)): 28 nM
GI50 (BaF3(T315I)): 278 nM

CN1CCC2(C1)C(=O)Nc1cc(C(=O)Nc3ccc(OC(F)(F)Cl)cc3)cc(-c3cc[nH]n3)c12 (centres unmarked) [V-8, N-(4-(chlorodifluoromethoxy)phenyl)-1′-methyl-2-oxo-4-(1H-pyrazol-3-yl)spiro[indoline-3,3′-pyrrolidine]-6-carboxamide]
GI50 (BaF3(WT)): 1550 nM

CC1(C)c2c(cc(C(=O)Nc3ccc(OC(F)(F)Cl)cc3)cc2-c2ccn[nH]2)C(=O)N1CCN1CC[C@@H](O)C1 [IV-8, (R)—N-(4-(chlorodifluoromethoxy)phenyl)-2-(2-(3-hydroxypyrrolidin-1-yl)ethyl)-1,1-dimethyl-3-oxo-7-(1H-pyrazol-5-yl)isoindoline-5-carboxamide]
GI50 (BaF3(WT)): 100 nM
GI50 (BaF3(T315I)): 6020 nM

CC(C)N1c2c(cc(C(=O)Nc3ccc(OC(F)(F)Cl)cc3)cc2-c2ccn[nH]2)CC1CC(=O)N1CCOCC1 (centres unmarked) [VII-35, N-(4-(chlorodifluoromethoxy)phenyl)-1-isopropyl-2-(2-morpholino-2-oxoethyl)-7-(1H-pyrazol-5-yl)indoline-5-carboxamide]
GI50 (BaF3(WT)): 173 nM
GI50 (BaF3(T315I)): 1190 nM

CC1CN(C)c2c(-c3ccn[nH]3)cc(C(=O)Nc3ccc(OC(F)(F)Cl)cc3)cc21 (centres unmarked) [VII-39, N-(4-(chlorodifluoromethoxy)phenyl)-1,3-dimethyl-7-(1H-pyrazol-5-yl)indoline-5-carboxamide]
GI50 (BaF3(WT)): 62 nM
GI50 (BaF3(T315I)): 1050 nM

CC1CN(C(C)C)c2cc(C(=O)Nc3ccc(OC(F)(F)Cl)cc3)cc(-c3ccn[nH]3)c21 (centres unmarked) [III-1, N-(4-(chlorodifluoromethoxy)phenyl)-1-isopropyl-3-methyl-4-(1H-pyrazol-5-yl)indoline-6-carboxamide]
GI50 (BaF3(WT)): 119 nM
GI50 (BaF3(T315I)): 3250 nM

CC(C)N1c2c(cc(C(=O)Nc3ccc(OC(F)(F)Cl)cc3)cc2-c2cncnc2)CC1C(=O)N1CCOCC1 (centres unmarked) [VII-23, N-(4-(chlorodifluoromethoxy)phenyl)-1-isopropyl-2-(morpholine-4-carbonyl)-7-(pyrimidin-5-yl)indoline-5-carboxamide]
GI50 (BaF3(WT)): 17 nM
GI50 (BaF3(T315I)): 146 nM

CC(C)N1c2c(cc(C(=O)Nc3ccc(OC(F)(F)Cl)cc3)cc2-c2ccn[nH]2)CC1C(=O)N1CC[C@@H](O)C1 (stereo partly drawn) [VII-29, N-(4-(chlorodifluoromethoxy)phenyl)-2-((R)-3-hydroxypyrrolidine-1-carbonyl)-1-isopropyl-7-(1H-pyrazol-5-yl)indoline-5-carboxamide]
GI50 (BaF3(WT)): 113 nM
GI50 (BaF3(T315I)): 940 nM

CN1C(=O)c2cc(C(=O)Nc3ccc(OC(F)(F)Cl)cc3)cc(-c3ccncc3)c2C1(C)C [IV-4, N-(4-(chlorodifluoromethoxy)phenyl)-1,1,2-trimethyl-3-oxo-7-(pyridin-4-yl)isoindoline-5-carboxamide]
GI50 (BaF3(WT)): 129 nM
GI50 (BaF3(T315I)): 581 nM

CC1(C)C(=O)Nc2cc(C(=O)Nc3ccc(OC(F)(F)Cl)cc3)cc(-c3ccn[nH]3)c21 [V-1, N-(4-(chlorodifluoromethoxy)phenyl)-3,3-dimethyl-2-oxo-4-(1H-pyrazol-5-yl)indoline-6-carboxamide]
GI50 (BaF3(WT)): 45 nM
GI50 (BaF3(T315I)): 71 nM

CN1CCc2cc(C(=O)Nc3ccc(OC(F)(F)Cl)cc3)cc(-c3ccn[nH]3)c21 [VII-7, N-(4-(chlorodifluoromethoxy)phenyl)-1-methyl-7-(1H-pyrazol-5-yl)indoline-5-carboxamide]
GI50 (BaF3(WT)): 113 nM
GI50 (BaF3(T315I)): 144 nM

CC(C)N1CC(CO)c2cc(C(=O)Nc3ccc(OC(F)(F)Cl)cc3)cc(-c3ccn[nH]3)c21 (centres unmarked) [VII-43, N-(4-(chlorodifluoromethoxy)phenyl)-3-(hydroxymethyl)-1-isopropyl-7-(1H-pyrazol-5-yl)indoline-5-carboxamide]
GI50 (BaF3(WT)): 16 nM
GI50 (BaF3(T315I)): 332 nM

CC(C)N1CCCc2cc(C(=O)Nc3ccc(OC(F)(F)Cl)cc3)cc(-c3ccn[nH]3)c21 [IX-1, N-(4-(chlorodifluoromethoxy)phenyl)-1-isopropyl-8-(1H-pyrazol-5-yl)-1,2,3,4-tetrahydroquinoline-6-carboxamide]
GI50 (BaF3(WT)): 235 nM
GI50 (BaF3(T315I)): 1050 nM

CC(C)N1c2c(cc(C(=O)Nc3ccc(OC(F)(F)Cl)cc3)cc2-c2ccn[nH]2)CC1CC(=O)N(C)C (centres unmarked) [VII-36, N-(4-(chlorodifluoromethoxy)phenyl)-2-(2-(dimethylamino)-2-oxoethyl)-1-isopropyl-7-(1H-pyrazol-5-yl)indoline-5-carboxamide]
GI50 (BaF3(WT)): 231 nM
GI50 (BaF3(T315I)): 1740 nM

CN1C(=O)c2cc(C(=O)Nc3ccc(OC(F)(F)Cl)cc3)cc(-c3ccn[nH]3)c2C1(C)C [IV-1, N-(4-(chlorodifluoromethoxy)phenyl)-1,1,2-trimethyl-3-oxo-7-(1H-pyrazol-5-yl)isoindoline-5-carboxamide]
GI50 (BaF3(WT)): 24 nM
GI50 (BaF3(T315I)): 244 nM

CC(C)N1C(=O)C(C)(C)c2cc(C(=O)Nc3ccc(OC(F)(F)Cl)cc3)cc(-c3cncnc3)c21 [VIII-2, N-(4-(chlorodifluoromethoxy)phenyl)-1-isopropyl-3,3-dimethyl-2-oxo-7-(pyrimidin-5-yl)indoline-5-carboxamide]
GI50 (BaF3(WT)): 359 nM
GI50 (BaF3(T315I)): 1990 nM

CN1C(=O)C(C)(C)c2c(-c3ccn[nH]3)cc(C(=O)Nc3ccc(OC(F)(F)Cl)cc3)cc21 [V-2, N-(4-(chlorodifluoromethoxy)phenyl)-1,3,3-trimethyl-2-oxo-4-(1H-pyrazol-5-yl)indoline-6-carboxamide]
GI50 (BaF3(WT)): 55 nM
GI50 (BaF3(T315I)): 354 nM

CCC1c2cc(C(=O)Nc3ccc(OC(F)(F)Cl)cc3)cc(-c3ccn[nH]3)c2N(C(C)C)C1CNC (centres unmarked) [VII-24, N-(4-(chlorodifluoromethoxy)phenyl)-3-ethyl-1-isopropyl-2-((methylamino)methyl)-7-(1H-pyrazol-5-yl)indoline-5-carboxamide]
GI50 (BaF3(WT)): 1690 nM
GI50 (BaF3(T315I)): 3860 nM

CN1CCCc2cc(C(=O)Nc3ccc(OC(F)(F)Cl)cc3)cc(-c3ccn[nH]3)c21 [IX-2, N-(4-(chlorodifluoromethoxy)phenyl)-1-methyl-8-(1H-pyrazol-5-yl)-1,2,3,4-tetrahydroquinoline-6-carboxamide]
GI50 (BaF3(WT)): 162 nM
GI50 (BaF3(T315I)): 332 nM

CC(C)N1CCOc2cc(C(=O)Nc3ccc(OC(F)(F)Cl)cc3)cc(-c3ccn[nH]3)c21 [IX-3, N-(4-(chlorodifluoromethoxy)phenyl)-4-isopropyl-5-(1H-pyrazol-5-yl)-3,4-dihydro-2H-benzo[b][1,4] oxazine-7-carboxamide]
GI50 (BaF3(WT)): 80 nM
GI50 (BaF3(T315I)): 535 nM
